# Tested on: K562
# Experiment: Cytotoxicity against human K562 cells by SRB assay
# Assay type: functional
SMILES,GI50 [µM],TGI [µM]
Cc1ccc(Cl)cc1NC(=O)c1sc2nc3c(cc2c1N)C(=O)CCC3,3.5,> 100
Cc1cc(C)c(NC(=O)c2sc3nc4c(cc3c2N)C(=O)CCC4)c(C)c1,3.6,> 100
Cc1ccccc1NC(=O)c1sc2nc3c(cc2c1N)C(=O)CCC3,4.3,> 100
Nc1c(C(=O)Nc2ccccc2)sc2nc3c(cc12)C(=O)CCC3,0.52,> 100
Nc1c(C(=O)Nc2ccccc2F)sc2nc3c(cc12)C(=O)CCC3,1.8,> 100
Nc1c(C(=O)Nc2cccc(Cl)c2)sc2nc3c(cc12)C(=O)CCC3,0.2,> 100
